Assay results as given in the NIST ThermoML archive (doi:10.1021/je200252c).
Numbers after ± are expanded uncertainties.

Test: Molar enthalpy of transition or fusion
Settings: Crystal; DSC

c1ccc2c(c1)OP1(=NP3(=NP4(=N1)Oc1ccccc1O4)Oc1ccccc1O3)O2 [tris(o-phenylenedioxy)cyclotriphosphazene]
Molar enthalpy of transition or fusion: 4.67 ± 0.143 kcal/mol
